The results in this text go back to US5106407A, “Iodones and methods for antimicrobial use” (priority 1989, dated 1992).

SMILES strings stand for the structures. Converted amounts (≈) assume the structure as drawn.

Holding throughout (test): minimum inhibitory concentration (MIC), agar dilution
What all share (assay type): cell-based

Assay [1] concerns Trichoderma viride. As to conditions: ATCC 8678; malt yeast agar. The procedure: (§1) The minimum inhibitory concentration (MIC) for the compound of Example 19, i.e., (2-nitrophenyl)-iodonium 2,2-dimethyl-4,6-dioxo-1,3-dioxan-5-ylide was determined for 9 bacteria (using nutrient agar) and 5 yeast and fungi (using malt yeast agar). A one percent solution of this test compound (i.e., the compound of Example 19) was prepared in a mixture of acetone-water. Nutrient agar was prepared at pH 6.8 using deionized water according to standard Difco procedures. Malt yeast agar was prepared by adding 3 g Bacto yeast extract and 42 g Bacto Malt agar per liter of deionized water. The agar (nutrient agar when testing with bacteria and malt yeast agar when testing with yeast and fungi) was dispensed in 30 mL aliquots into 25×200 millimeter (mm) test tubes, capped and autoclaved for 15 min at 115° C. The test tubes containing the agar were cooled in a water bath until the temperature of the agar was 48° C. and then an appropriate amount of the one percent solution of the test compound was added (except in the controls where no test compound was added with the acetone-water) to the respective test tubes so that final concentrations of 500, 250, 100, 50, 25, 10, 5, 2.5, 1.0 and 0 parts per million (ppm) of the test compound in the agar were obtained. The agar solutions were each mixed and poured into individual petri plates so that each petri plate contained agar having a known concentration of test compound dispersed therein. After drying for 24 hr, the petri plates were inoculated with bacteria when the petri plates contained nutrient broth agar or with fungi and yeast when the petri plates contained malt yeast agar.
(§2) The petri plates were incubated at 30° C. for 48 hr and then read to determine if the test compound (i.e., the compound of Example 19) which was incorporated into the agar prevented growth of the respective bacteria. The minimum inhibitory concentration (MIC) for each bacteria was defined as the lowest concentration of the test compound which prevented growth of that bacteria.
(§3) The inoculation with the fungi and yeast was accomplished as follows. Cultures of fungi and yeast were incubated for 7 days on malt yeast agar at 30° C. These cultures were used to prepare suspensions by the following procedure. A suspension of each organism was prepared by adding 10 mL of sterile saline and 10 microliters […] of Triton ×100 to the slant. The sterile saline/Triton ×100 solution was then agitated with a sterile swab to suspend the microorganism grown on the slant. Each resulting suspension was diluted into sterile saline (1 part suspension: 9 parts sterile saline). […] The petri plates were incubated at 30° C. and read after 48 hr for yeast and 72 hr for fungi.

The subject of assay [2] is Aspergillus niger. The note with it: ATCC 16404; malt yeast agar. The procedure:
as §1, §2, §3

Assay [3] deals with Candida albicans. As to conditions: ATCC 10231; malt yeast agar. On the procedure: as §1, §2, §3
Assay [4] concerns Penicillium chrysogenum. The note with it: ATCC 9480; malt yeast agar. On the procedure: as §1, §2, §3
Assay [5] has as its system Escherichia coli. As to conditions: Escherichia coli, ATCC11229; ATCC 11229; nutrient agar pH 6.8; read-out: MIC. The procedure:
as §1
(§4) The inoculation with bacteria was accomplished using the following procedure. Twenty-four hr cultures of each of the bacteria were prepared by incubating the respective bacteria in tubes containing nutrient broth for 24 hr at 30° C. in a shaker. Dilutions of each of the 24 hr cultures were made so that 9 separate suspensions (one for each of the 9 test bacteria) were made, each containing about 10^8 colony forming units (CFU) per mL of suspension of a particular bacteria. Aliquots of 0.3 mL of each of the above suspensions were used to fill individual wells of a Steer's Replicator. For each microbial suspension, 0.3 mL was used to fill 3 wells (i.e., 3 wells of 0.3 mL each) so that for the 9 different bacteria 27 wells were filled. The Steer's Replicator was then used to inoculate the petri plates.
as §2
(§5) In a similar procedure, the MIC (in ppm) of the compound of Example 11 (i.e., (2-nitrophenyl)-iodonium 2,6-dioxocyclohexylide) for various organisms was determined at an acid pH (about 6.8) and at an alkaline pH (about 8.2).

In assay [6] the test system is Proteus vulgaris. As to conditions: Proteus vulgaris, ATCC881; ATCC 881; nutrient agar pH 6.8; read-out: MIC. On the procedure: as §1, §4, §2, §5
Assay [7] relates to Staphylococcus aureus. As to conditions: Staphylococcus aureus, ATCC6538; ATCC 6538; nutrient agar pH 6.8; read-out: MIC. On the procedure:
as §1, §4, §2, §5

In assay [8] the test system is Pseudomonas aeruginosa PRD-10. As to conditions: Pseudomonas aeruginosa, ATCC15442; ATCC 15442; nutrient agar pH 6.8; read-out: MIC. The procedure:
as §1, §4, §2, §5

Assay [9] has as its system Pseudomonas aeruginosa. As to conditions: Pseudomonas aeruginosa, ATCC10145; ATCC 10145; nutrient agar pH 6.8; read-out: MIC. The procedure:
as §1, §4, §2, §5

The test system of assay [10] is Klebsiella pneumoniae. As to conditions: Klebsiella pneumoniae, ATCC8308; ATCC 8308; nutrient agar pH 6.8; read-out: MIC. On the procedure: as §1, §4, §2, §5
Assay [11] relates to Salmonella choleraesuis. The note with it: Salmonella enterica, ATCC 10708 / CHOLERAESUIS, nutrient agar pH 6.8, read-out: MIC. On the procedure:
as §1, §4, §2, §5

`CC1(C)OC(=O)[C-]([I+]c2ccccc2[N+](=O)[O-])C(=O)O1` [Example 19, (2-Nitrophenyl)-iodonium 2,2-dimethyl-4,6-dioxo-1,3-dioxan-5-ylide]: the minimum inhibitory concentration (MIC) in [1] is 250 µg/mL (≈ 639 µM); in assay [2], 250 µg/mL (≈ 639 µM); in assay [3], 100 µg/mL (≈ 256 µM); in assay [4], 100 µg/mL (≈ 256 µM); in assay [5], at most 1 µg/mL; in [6], at most 1 µg/mL. Also, the minimal inhibitory concentration (MIC) is at most 1 µg/mL in assay [7]; 10 µg/mL (≈ 25.6 µM) in [8]; 10 µg/mL (≈ 25.6 µM) in assay [9]; at most 1 µg/mL in assay [10]; at most 1 µg/mL in assay [11].

What is called MIC is the lowest concentration found to suppress growth.
